Experimental data taken from ChEMBL document CHEMBL1201862, “PubChem BioAssay data set” (2004).
Active and inactive are the calls of the source.

Assays:
Escherichia coli [1] = assay: microbe, parasite or virus in culture
Exodeoxyribonuclease V = molecular target: T1, Exodeoxyribonuclease V (Escherichia coli (strain K12), UniProt P04993+P07648+P08394); assay: RecBCD inhibition via phage-restricted bacterial growth – absorbance, V66 E. coli, mutant T4 phage, counter-screen for AddAB inhibitor project, dose response (AID 492957); assay type: functional, cell-based, Escherichia coli str. K-12 substr. MG1655
T1 sequence (P04993 whole entry): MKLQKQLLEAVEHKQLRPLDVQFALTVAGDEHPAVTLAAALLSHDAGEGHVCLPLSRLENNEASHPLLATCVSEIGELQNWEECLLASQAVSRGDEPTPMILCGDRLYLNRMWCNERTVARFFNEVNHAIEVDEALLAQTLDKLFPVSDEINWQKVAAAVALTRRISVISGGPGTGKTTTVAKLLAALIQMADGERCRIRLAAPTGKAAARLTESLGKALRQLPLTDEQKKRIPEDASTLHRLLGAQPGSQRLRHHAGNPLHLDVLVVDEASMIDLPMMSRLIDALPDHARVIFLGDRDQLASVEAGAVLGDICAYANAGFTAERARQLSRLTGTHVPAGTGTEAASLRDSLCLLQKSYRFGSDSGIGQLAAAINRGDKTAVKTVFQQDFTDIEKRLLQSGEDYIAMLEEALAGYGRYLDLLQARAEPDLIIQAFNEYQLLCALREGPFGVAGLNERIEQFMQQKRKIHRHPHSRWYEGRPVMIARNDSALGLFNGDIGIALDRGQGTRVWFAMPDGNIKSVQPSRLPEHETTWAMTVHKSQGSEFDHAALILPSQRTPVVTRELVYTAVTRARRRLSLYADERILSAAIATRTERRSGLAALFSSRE
T1 sequence (P07648 whole entry): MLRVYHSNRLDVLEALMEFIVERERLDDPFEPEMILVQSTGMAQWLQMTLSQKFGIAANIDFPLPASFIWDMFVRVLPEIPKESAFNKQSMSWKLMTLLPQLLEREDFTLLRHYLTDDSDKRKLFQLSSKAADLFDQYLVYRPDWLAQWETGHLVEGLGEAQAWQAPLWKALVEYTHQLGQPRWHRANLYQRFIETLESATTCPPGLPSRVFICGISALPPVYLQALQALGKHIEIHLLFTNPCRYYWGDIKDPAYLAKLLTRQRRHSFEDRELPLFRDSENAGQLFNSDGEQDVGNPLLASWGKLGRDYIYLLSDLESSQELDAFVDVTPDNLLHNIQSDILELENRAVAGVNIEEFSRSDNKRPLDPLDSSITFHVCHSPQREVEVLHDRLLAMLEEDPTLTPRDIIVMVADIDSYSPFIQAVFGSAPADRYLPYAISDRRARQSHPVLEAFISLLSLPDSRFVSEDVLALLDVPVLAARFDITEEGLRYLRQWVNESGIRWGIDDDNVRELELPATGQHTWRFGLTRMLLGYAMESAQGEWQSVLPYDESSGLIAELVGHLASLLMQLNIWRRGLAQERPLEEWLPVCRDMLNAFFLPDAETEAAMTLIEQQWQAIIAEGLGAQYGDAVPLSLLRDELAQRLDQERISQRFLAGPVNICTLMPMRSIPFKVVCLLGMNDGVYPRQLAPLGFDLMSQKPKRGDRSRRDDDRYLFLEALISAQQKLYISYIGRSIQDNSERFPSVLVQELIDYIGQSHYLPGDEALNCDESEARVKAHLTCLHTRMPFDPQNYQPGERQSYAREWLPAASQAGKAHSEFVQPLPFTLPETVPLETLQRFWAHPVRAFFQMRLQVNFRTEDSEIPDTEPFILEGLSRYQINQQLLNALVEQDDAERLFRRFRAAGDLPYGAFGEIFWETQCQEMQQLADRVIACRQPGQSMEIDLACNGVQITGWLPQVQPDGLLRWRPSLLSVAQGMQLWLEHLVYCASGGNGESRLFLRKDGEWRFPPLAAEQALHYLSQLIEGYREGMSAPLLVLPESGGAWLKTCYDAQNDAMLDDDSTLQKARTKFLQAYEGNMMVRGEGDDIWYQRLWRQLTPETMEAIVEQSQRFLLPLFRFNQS
T1 sequence (P08394 whole entry): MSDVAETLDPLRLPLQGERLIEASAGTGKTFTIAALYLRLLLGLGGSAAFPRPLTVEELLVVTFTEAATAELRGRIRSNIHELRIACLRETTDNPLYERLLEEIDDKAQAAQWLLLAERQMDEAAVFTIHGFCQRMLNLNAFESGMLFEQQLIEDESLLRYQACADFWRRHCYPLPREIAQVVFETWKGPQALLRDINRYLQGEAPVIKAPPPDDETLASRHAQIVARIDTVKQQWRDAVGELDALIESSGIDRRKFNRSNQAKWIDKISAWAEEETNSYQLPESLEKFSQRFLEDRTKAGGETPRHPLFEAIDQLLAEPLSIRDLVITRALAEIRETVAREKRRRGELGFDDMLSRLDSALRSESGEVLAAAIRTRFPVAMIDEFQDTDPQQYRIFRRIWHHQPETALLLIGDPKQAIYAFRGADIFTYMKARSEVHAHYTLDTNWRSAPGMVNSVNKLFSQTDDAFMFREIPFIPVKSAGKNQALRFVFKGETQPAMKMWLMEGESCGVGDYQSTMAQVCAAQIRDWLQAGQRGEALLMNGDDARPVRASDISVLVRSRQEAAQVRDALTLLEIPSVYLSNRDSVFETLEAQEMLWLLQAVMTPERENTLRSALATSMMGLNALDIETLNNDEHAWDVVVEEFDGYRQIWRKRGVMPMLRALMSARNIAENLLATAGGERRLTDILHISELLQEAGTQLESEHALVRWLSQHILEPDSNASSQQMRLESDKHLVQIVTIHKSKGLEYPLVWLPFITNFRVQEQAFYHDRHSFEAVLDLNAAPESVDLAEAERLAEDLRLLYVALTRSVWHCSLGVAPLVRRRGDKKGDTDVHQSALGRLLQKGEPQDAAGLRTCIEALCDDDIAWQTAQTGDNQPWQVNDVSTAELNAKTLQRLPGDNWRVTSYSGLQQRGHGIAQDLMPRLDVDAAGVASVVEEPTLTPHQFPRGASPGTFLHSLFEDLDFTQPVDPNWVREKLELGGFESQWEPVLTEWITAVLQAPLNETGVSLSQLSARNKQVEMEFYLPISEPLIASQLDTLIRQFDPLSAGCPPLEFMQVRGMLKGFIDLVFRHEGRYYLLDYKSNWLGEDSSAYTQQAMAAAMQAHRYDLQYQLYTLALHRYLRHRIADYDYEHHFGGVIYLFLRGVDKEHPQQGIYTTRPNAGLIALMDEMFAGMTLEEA

[2] = Counterscreen for AddAB inhibitors: absorbance-based bacterial cell-based high throughput dose response assay for inhibitors of bacterial viability. [Related pubchem assays (depositor defined):AID435030, AID449728, AID449731, AID488942, AID488955, AID488956]; assay type: functional
Escherichia coli [3] = assay: microbe, parasite or virus in culture; remark: listed apart in the source
HEK293 [4] = assay: cells; conditions: Homo sapiens
HEK293 [5] = assay: cells; conditions: Homo sapiens; remark: listed apart in the source

O=C(c1ccccc1F)N1C(=O)c2cccc3cccc1c23
AC50 (Escherichia coli [1]): 38.6 µM (active)

CC(=O)c1ccc(NC(S)=NC(NC(=O)c2ccco2)C(Cl)(Cl)Cl)cc1 (configuration not stated)
IC50 (Exodeoxyribonuclease V): > 119 µM (inactive) | IC50 [2]: > 119 µM (inactive)

Cc1cccc(OCC(=O)N2CCOCC2)c1
AC50 (Escherichia coli [1]): 37.1 µM (active) | AC50 (Escherichia coli [3]): 103 µM (active)

CCN(CC)S(=O)(=O)c1cc(NC(=O)CSCc2c(C)noc2C)ccc1C
EC50 (HEK293 [4]): > 59.6 µM (inactive) | EC50 (HEK293 [5]): > 59.6 µM (inactive)
